In general, IC50 refers to the midpoint of a concentration-inhibition curve. Read a high IC50 as weaker potency in that assay. As usually defined, the Ki is the equilibrium dissociation constant of an inhibitor or competing ligand from its target.

The structures appear in SMILES notation.

This is an account of results in ChEMBL document CHEMBL6078697, “Synthesis and Evaluation of 9-epi-Koshidacin B as Selective Inhibitor of Histone Deacetylase 1” (J Nat Prod, 2024).

The target in test [1] is T1, Histone deacetylase 1 (Homo sapiens, UniProt Q13547). The experiment in a line: Inhibition of HDAC1 (unknown origin).
T1 sequence (Q13547 whole entry): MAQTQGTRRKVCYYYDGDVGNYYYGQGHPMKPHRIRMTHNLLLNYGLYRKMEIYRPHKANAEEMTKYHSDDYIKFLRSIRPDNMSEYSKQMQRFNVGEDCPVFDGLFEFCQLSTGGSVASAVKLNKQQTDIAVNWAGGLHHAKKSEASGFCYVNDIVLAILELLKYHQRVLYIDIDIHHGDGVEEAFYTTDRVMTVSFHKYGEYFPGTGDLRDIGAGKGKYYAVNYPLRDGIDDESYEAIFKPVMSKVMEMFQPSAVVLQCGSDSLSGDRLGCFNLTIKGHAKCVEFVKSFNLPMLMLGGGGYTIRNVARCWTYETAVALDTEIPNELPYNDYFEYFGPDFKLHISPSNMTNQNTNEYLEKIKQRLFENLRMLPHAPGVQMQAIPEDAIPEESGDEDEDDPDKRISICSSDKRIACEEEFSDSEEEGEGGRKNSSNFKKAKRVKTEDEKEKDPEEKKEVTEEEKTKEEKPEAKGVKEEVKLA
For test [2], the target named is T1, Histone deacetylase 1. The experiment in a line: Inhibition of HDAC1 (unknown origin) using RHKK(Ac)AMC as substrate.
The target of test [3] is T2, Protein deacetylase HDAC6 (Homo sapiens, UniProt Q9UBN7).
T2 sequence (Q9UBN7 whole entry): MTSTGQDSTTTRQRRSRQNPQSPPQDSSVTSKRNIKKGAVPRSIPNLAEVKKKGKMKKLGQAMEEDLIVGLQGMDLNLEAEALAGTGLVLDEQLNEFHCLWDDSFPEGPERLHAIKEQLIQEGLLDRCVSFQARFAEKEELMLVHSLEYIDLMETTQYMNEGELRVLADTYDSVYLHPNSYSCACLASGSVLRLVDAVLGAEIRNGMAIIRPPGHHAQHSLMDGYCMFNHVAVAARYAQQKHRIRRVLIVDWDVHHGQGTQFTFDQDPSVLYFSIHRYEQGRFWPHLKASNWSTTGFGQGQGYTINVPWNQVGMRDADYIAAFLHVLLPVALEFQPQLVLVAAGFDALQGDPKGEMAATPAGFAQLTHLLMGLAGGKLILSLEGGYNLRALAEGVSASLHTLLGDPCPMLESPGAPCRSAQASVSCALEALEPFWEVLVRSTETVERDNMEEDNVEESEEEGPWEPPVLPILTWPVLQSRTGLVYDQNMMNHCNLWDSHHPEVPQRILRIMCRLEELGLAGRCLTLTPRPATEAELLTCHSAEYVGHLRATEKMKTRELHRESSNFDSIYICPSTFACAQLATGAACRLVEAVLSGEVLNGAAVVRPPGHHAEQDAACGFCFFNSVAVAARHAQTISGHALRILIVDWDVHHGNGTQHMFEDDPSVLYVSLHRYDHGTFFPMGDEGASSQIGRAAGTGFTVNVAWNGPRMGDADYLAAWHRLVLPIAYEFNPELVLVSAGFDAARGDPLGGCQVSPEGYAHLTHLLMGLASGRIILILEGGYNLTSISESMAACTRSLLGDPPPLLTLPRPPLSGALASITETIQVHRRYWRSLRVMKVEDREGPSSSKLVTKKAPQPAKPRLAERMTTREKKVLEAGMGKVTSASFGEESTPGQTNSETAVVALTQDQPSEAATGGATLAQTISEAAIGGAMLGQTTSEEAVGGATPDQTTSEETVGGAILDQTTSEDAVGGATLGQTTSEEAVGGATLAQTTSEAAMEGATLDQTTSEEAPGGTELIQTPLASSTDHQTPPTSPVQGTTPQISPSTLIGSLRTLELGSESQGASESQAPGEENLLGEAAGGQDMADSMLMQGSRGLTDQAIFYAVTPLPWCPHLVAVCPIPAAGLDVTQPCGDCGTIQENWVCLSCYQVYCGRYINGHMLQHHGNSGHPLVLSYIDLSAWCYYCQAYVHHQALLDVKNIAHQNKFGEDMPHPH
Put plainly: Inhibition of HDAC6 (unknown origin) using RHKK(Ac)AMC as substrate.

Test [4] deals with T1, Histone deacetylase 1. The experiment in a line: Binding affinity to HDAC1 (unknown origin) assessed as inhibition constant.
The nature of test [5]: Selectivity ratio of IC50 for inhibition of HDAC4 (unknown origin) to IC50 for inhibition of HDAC1 (unknown origin).
The nature of test [6]: Selectivity ratio of IC50 for inhibition of HDAC6 (unknown origin) to IC50 for inhibition of HDAC1 (unknown origin).
The target of another test is Histone deacetylase 4 (Homo sapiens, UniProt P56524). Put plainly: Inhibition of HDAC4 (unknown origin) using trifluoroacetyl lysine as substrate.
Sequence of Histone deacetylase 4 (P56524 whole entry): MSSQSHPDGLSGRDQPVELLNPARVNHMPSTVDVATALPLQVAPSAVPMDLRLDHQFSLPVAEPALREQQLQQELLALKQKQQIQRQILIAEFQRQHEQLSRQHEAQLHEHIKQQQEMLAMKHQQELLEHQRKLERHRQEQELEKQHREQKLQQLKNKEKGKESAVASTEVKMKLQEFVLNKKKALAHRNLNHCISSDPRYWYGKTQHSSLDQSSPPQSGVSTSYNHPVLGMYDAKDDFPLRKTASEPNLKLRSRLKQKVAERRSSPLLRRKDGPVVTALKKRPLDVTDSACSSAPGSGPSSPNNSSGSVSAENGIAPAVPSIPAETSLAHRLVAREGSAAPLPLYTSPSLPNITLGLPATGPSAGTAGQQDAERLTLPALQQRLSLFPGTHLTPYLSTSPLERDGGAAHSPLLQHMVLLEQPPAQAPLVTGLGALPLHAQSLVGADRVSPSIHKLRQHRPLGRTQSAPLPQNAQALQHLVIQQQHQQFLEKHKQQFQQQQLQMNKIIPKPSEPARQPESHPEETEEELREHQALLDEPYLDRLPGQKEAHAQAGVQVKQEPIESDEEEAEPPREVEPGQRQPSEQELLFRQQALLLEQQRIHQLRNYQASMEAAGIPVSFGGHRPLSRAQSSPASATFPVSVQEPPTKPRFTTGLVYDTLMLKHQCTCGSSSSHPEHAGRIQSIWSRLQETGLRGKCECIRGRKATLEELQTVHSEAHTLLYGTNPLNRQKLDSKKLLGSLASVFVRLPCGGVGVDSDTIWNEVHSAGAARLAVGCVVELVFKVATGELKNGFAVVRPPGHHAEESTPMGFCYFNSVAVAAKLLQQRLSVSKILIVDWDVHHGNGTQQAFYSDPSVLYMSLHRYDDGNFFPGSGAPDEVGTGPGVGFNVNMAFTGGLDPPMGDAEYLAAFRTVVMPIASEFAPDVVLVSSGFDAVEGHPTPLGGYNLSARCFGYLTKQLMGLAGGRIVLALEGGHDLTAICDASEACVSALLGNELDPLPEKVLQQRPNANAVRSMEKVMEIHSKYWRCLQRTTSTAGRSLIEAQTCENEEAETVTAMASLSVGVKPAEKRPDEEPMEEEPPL

As for `CC[C@]1(C)NC(=O)[C@H](CCCCCC(=O)[C@@H](C)O)NC(=O)[C@H]2CCCN2C(=O)[C@H](Cc2ccc(O)cc2)NC1=O`, the IC50 against Histone deacetylase 1 [1] is 0.0215 µM. Regarding `CC1(C)NC(=O)[C@H](CCCCCC(=O)[C@@H]2CO2)NC(=O)[C@H]2CCCN2C(=O)[C@H](Cc2ccccc2)NC1=O`, the IC50 against Histone deacetylase 1 [1] amounted to 1.1 µM; against Histone deacetylase 1 [2] it was 0.00015 µM; in test [3] it was 1.1 µM.

As for `CC1(C)NC(=O)[C@H](CCCCCC(=O)[C@H](O)CO)NC(=O)[C@H]2CCCN2C(=O)[C@H](Cc2ccccc2)NC1=O` (stereo in doubt; form 2), on Histone deacetylase 1 [4], the Ki came out at 15.8 µM. Take `CC1(C)NC(=O)[C@H](CCCCCC(=O)[C@H](O)CO)NC(=O)[C@H]2CCCN2C(=O)[C@H](Cc2ccccc2)NC1=O` [listing 1 of 2 here]: the Ratio IC50 in test [5] was determined as 7000; in test [6], 2200.

Regarding `CC1(C)NC(=O)[C@H](CCCCCC(=O)[C@@H](O)CO)NC(=O)[C@H]2CCCN2C(=O)[C@H](Cc2ccccc2)NC1=O` (stereo in doubt; form 1), the Ki on Histone deacetylase 1 [4] turned out to be 11.2 µM. On the same count and under the same terms, then `CC1(C)NC(=O)[C@H](CCCCCC(=O)[C@@H](O)CO)NC(=O)[C@H]2CCCN2C(=O)[C@H](Cc2ccccc2)NC1=O` (stereo in doubt; form 2), with 22.1 µM. `C[C@@H](O)C(=O)CCCCC[C@@H]1NC(=O)[C@H]2CCCN2C(=O)[C@H](Cc2ccccc2)NC(=O)C(C)(C)NC1=O`: the IC50 at Histone deacetylase 1 [2] was 0.03 µM. As to `CC1(C)NC(=O)[C@H](CCCCCC(=O)[C@H](O)CO)NC(=O)[C@H]2CCCN2C(=O)[C@H](Cc2ccccc2)NC1=O` (stereo in doubt; form 1), the Ki on Histone deacetylase 1 [4] was determined as 5.65 µM. For the molecule `CC1(C)NC(=O)[C@H](CCCCCC(=O)[C@H](O)CO)NC(=O)[C@H]2CCCN2C(=O)[C@H](Cc2ccccc2)NC1=O` [listing 2 of 2 here], the results for the IC50 (against Histone deacetylase 4; against Histone deacetylase 1 [2]; in test [3]) were 1000 µM, 0.145 µM and 319 µM, respectively.

`C[C@H](O)C(=O)CCCCC[C@@H]1NC(=O)[C@H]2CCCN2C(=O)[C@H](Cc2ccccc2)NC(=O)C(C)(C)NC1=O` gave an IC50 against Histone deacetylase 1 [2] of 0.33 µM.
